“Also recorded” adds a separate entry of the source.
Legend:
[1] = biological target: T1, hP2Y14R (Homo sapiens, UniProt Q15391); experiment: Antagonism of 2; type: cell-based
T1 sequence (Q15391 1-338): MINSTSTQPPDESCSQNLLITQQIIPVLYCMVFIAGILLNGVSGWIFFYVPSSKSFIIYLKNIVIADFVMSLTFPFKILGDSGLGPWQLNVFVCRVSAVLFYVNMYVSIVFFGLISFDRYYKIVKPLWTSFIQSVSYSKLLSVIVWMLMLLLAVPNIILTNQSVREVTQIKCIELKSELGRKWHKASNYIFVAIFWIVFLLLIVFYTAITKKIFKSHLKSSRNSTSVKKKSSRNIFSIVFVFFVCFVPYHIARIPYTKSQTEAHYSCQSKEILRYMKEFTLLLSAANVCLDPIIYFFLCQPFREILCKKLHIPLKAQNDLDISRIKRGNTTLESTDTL

[2] = biological target: T2, P2Y14R (Homo sapiens, UniProt Q15391); experiment: Flow cytometry; details: 10 μM competing ligand, 30 min preincubation; 10 nM 30
T2 sequence (Q15391 1-338): T1 sequence (Q15391 1-338)

Row | Ki [1] [µM] | effect of competing ligand on labeling of P2Y14R-CHO cells by 30, in words [2] | Structure (SMILES) | also measured
1 | 0.12 ± 0.008 |  | CCOC(=O)c1cc(-c2ccc(C3CCNCC3)cc2)c2ccc(-c3ccc(C(F)(F)F)cc3)cc2c1 [compound 19] | fold weaker as an antagonist than free carboxylate analogue 6 ([1]; relative to 6): 400 fold
2 | 0.026 ± 0.006 |  | CC(C)(C)OC(=O)NCCCN1CCC(c2ccc(-c3cc(C(=O)O)cc4cc(-c5ccc(C(F)(F)F)cc5)ccc34)cc2)CC1 [compound 26] | 
3 | 0.0027 ± 0.0012 |  | C#CCCN1CCC(c2ccc(-c3cc(C(=O)O)cc4cc(-c5ccc(C(F)(F)F)cc5)ccc34)cc2)CC1 [compound 20] | 
4 |  | failed at 10 μM to prevent binding of 30 | CNc1ncnc2c1ncn2[C@H]1C[C@H](OP(=O)(O)O)[C@@H](COP(=O)(O)O)O1 [compound 37] | 
5 |  | largely prevented the labeling | O=c1ccn([C@@H]2O[C@H](COP(=O)(O)OP(=O)(O)O)[C@@H](O)[C@H]2O)c(=O)[nH]1 [compound 1, uridine-5′-diphosphate] | 
6 | 0.013 ± 0.0011 |  | C#CCCCCN1CCC(c2ccc(-c3cc(C(=O)O)cc4cc(-c5ccc(C(F)(F)F)cc5)ccc34)cc2)CC1 [compound 22] | 
7 |  | largely prevented the labeling | O=C(O)[C@H]1O[C@H](OP(=O)(O)OP(=O)(O)OC[C@H]2O[C@@H](n3ccc(=O)[nH]c3=O)[C@H](O)[C@@H]2O)[C@H](O)[C@@H](O)[C@@H]1O [compound 36, uridine-5′-diphosphoglucuronic acid] | 
8 | 0.0067 ± 0.0022 |  | C#CCCC(=O)N1CCC(c2ccc(-c3cc(C(=O)O)cc4cc(-c5ccc(C(F)(F)F)cc5)ccc34)cc2)CC1 [compound 24] | 
9 |  | only a minor reduction | Cc1ccc(C(=O)Nc2ccc(S(=O)(=O)O)c3cc(S(=O)(=O)O)cc(S(=O)(=O)O)c23)cc1NC(=O)c1cccc(NC(=O)Nc2cccc(C(=O)Nc3cc(C(=O)Nc4ccc(S(=O)(=O)O)c5cc(S(=O)(=O)O)cc(S(=O)(=O)O)c45)ccc3C)c2)c1 [suramin] | 
10 |  | largely prevented the labeling | O=C(O)c1cc(-c2ccc(C3CCNCC3)cc2)c2ccc(-c3ccc(C(F)(F)F)cc3)cc2c1 [compound 6, 4-(4-(piperidin-4-yl)-phenyl)-7-(4-(trifluoromethyl)-phenyl)-2-naphthoic acid] | 
11 | > 0.1 |  | O=C(CCCCCNC(=O)COc1ccc(/C=C/C2=CC3=Cc4ccc(-c5cccs5)n4[B-](F)(F)[N+]3=C2)cc1)NCCCn1cc(CCCCN2CCC(c3ccc(-c4cc(C(=O)O)cc5cc(-c6ccc(C(F)(F)F)cc6)ccc45)cc3)CC2)nn1 [compound 32] | antagonist potency / affinity at P2Y14R, in words ([1]; P2Y14R-CHO cells): much weaker; also recorded: low affinity
12 |  | failed at 10 μM to prevent binding of 30 | S=C=Nc1cccc(NC(=S)NCCCCNC(=S)Nc2cccc(N=C=S)c2)c1 [compound 38] | 
13 | 0.014 ± 0.0024 |  | NCCCN1CCC(c2ccc(-c3cc(C(=O)O)cc4cc(-c5ccc(C(F)(F)F)cc5)ccc34)cc2)CC1 [compound 27] | 
14 | 0.0083 ± 0.0019 |  | C#CCCCCC(=O)N1CCC(c2ccc(-c3cc(C(=O)O)cc4cc(-c5ccc(C(F)(F)F)cc5)ccc34)cc2)CC1 [compound 25] | 
15 | 0.002 ± 0.0002 |  | C=C1CCC[N+]12CCC(c1ccc(-c3cc(C(=O)[O-])cc4cc(-c5ccc(C(F)(F)F)cc5)ccc34)cc1)CC2 (centres unmarked) [compound 23] | 

Source: article PMC4273980 (ACS Chemical Biology, 2014)
